Test results: US7135336B1, “Use of Xenopus laevis oocytes a microincubators” (University of South Florida, priority 2004, dated 2006)

Molecular target: T1, human α4/β2 nicotinic receptors (Homo sapiens, UniProt P17787+P43681)
T1 construct: expressed in transfected cells; host or cells: Xenopus laevis oocytes injected with α4/β2 RNA (BMSC-injected and non-injected control oocytes)
Test: Two electrode voltage clamp recordings of acetylcholine chloride concentration response in Xenopus laevis oocytes expressing human α4/β2 nicotinic receptors
Format: cell-based
Experimental: Electrophysiological Recordings. The last set of experiments was designed to investigate survival and lifespan differences between frog oocytes injected with BMSC and non-injected oocytes. Both groups were carefully maintained under the same conditions for a prolonged period of time. […] Whole cell currents were measured at room temperature, 48 hours after RNA injection.
Finally, the last set of experiments was devoted to the study of the longevity of recipient oocytes with control test for their functional activity in the form of ability of oocytes to express α4/β2 subunits of human nicotinic receptors in their membranes 48h after RNA injection.

[1] = BMSC injected 44 day old oocytes

T1 sequence (P43681 29-627 limits assumed): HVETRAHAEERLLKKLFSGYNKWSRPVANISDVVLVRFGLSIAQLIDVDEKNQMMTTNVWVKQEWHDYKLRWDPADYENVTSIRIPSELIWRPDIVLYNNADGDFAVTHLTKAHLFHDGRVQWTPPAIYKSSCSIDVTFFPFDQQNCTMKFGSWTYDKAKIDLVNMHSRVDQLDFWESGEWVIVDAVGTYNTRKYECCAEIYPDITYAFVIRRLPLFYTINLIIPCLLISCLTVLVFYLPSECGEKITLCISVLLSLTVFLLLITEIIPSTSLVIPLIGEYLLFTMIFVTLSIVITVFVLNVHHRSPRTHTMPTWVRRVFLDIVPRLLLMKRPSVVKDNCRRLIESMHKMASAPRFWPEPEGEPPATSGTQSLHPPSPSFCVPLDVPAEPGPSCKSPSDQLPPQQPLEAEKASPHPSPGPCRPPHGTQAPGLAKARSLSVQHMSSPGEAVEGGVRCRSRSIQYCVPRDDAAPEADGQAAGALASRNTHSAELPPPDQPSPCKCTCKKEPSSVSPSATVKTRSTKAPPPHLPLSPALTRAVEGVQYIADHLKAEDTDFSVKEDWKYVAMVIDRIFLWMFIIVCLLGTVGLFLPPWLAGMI
T1 sequence (P17787 26-502): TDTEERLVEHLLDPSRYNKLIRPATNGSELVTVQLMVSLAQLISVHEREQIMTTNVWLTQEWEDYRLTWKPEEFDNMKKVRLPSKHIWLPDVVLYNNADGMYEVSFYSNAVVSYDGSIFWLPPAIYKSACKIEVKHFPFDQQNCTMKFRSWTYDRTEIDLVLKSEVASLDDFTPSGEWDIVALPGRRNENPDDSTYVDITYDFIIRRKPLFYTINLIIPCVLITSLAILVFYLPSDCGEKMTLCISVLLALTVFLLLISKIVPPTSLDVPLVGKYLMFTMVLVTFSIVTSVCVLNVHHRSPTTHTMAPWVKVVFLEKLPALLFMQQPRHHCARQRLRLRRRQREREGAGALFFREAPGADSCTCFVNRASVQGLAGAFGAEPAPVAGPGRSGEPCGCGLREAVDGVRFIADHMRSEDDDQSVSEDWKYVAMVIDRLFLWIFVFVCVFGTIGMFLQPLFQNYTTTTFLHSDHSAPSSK

Compound: CC(=O)OCC[N+](C)(C)C.[Cl-] [Ach, acetylcholine chloride]
- nH1 (high-affinity Hill coefficient) [1]: 0.51
- nH2 (low-affinity Hill coefficient) [1]: 3.0
- times lower concentration of agonist for 50% of Ach evoked peak current amplitude, BMSC injected vs control oocytes (high-affinity sites): 2.7 times
- times lower concentration of Ach for 50% of peak current, BMSC injected vs control oocytes (low affinity sites): 3.8 times
- nH1 (high-affinity Hill coefficient) (non-injected control oocytes): 0.68
- nH2 (low-affinity Hill coefficient) (non-injected control oocytes): 2.6
